Reference: the supplement of paper PMC10307832

Experiments:
Experiment in all cases: relative viability (nuclei count vs DMSO), 5 days (fraction); higher = more cells survive
[1] = compound: C1=CC2=C(C=C(C(=C2N=C1)O)N=NC3=CC4=C(C=C3)C=C(C=C4)S(=O)(=O)O)S(=O)(=O)O
Outline: (§1)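 Viability was defined as treated-well nuclei divided by vehicle-well nuclei, with the median taken over replicate plates. Cells from lung cancer lines sat overnight at 37 °C in 1536-well plates, received five √10-spaced library-drug doses by pinning on vehicle-anchored plates, and grew 5 days without medium change before one-step fixation, permeabilisation and Hoechst staining, 4× imaging and MetaXpress nuclear counts. Only plates with control CV under 25% and at least one doubling were kept.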

[2] = compound: O=C(NC1CCNCC1)c1n[nH]cc1NC(=O)c1c(Cl)cccc1Cl [AT-7519]
Outline: as §1

[3] = compound: C1=CC2=C(C=C(C(=C2N=C1)O)N=NC3=CC4=C(C=C3)C=C(C=C4)S(=O)(=O)O)S(=O)(=O)O + CC1(C)CCC(c2ccc(Cl)cc2)=C(CN2CCN(c3ccc(C(=O)NS(=O)(=O)c4ccc(N[C@H](CCN5CCOCC5)CSc5ccccc5)c(S(=O)(=O)C(F)(F)F)c4)cc3)CC2)C1 [Navitoclax] (partner 0.5 µM)
Outline: (§2)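 Medians of duplicate plates are given as relative viability. That measure is the nuclei count in treated wells divided by the count in vehicle wells. Counts were taken on 4× images of lung cancer cell lines in 1536-well plates, 5 days after pin-tool dosing the day after seeding with one drug alone or a fixed anchor-drug dose plus five library-drug doses (not always all listed) in √10 steps.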

[4] = compound: O=C(NC1CCNCC1)c1n[nH]cc1NC(=O)c1c(Cl)cccc1Cl [AT-7519] + N=C(N)NC(=N)NCCc1ccccc1 [Phenformin] (partner 250 µM)
Outline: as §2

Cell Line	relative viability ([1]; 0.08 µM)	relative viability ([1]; 0.253 µM)	relative viability ([1]; 0.8 µM)	relative viability ([1]; 2.53 µM)	relative viability ([1]; 8 µM)	relative viability ([2]; 0.01 µM)	relative viability ([2]; 0.03162 µM)	relative viability ([2]; 0.3162 µM)	relative viability ([2]; 1 µM)	relative viability ([3]; first compound 0.08 µM)	relative viability ([3]; first compound 0.253 µM)	relative viability ([3]; first compound 0.8 µM)	relative viability ([3]; first compound 2.53 µM)	relative viability ([3]; first compound 8 µM)	relative viability ([4]; first compound 0.01 µM)	relative viability ([4]; first compound 0.03162 µM)	relative viability ([4]; first compound 0.3162 µM)	relative viability ([4]; first compound 1 µM)
NCI-H647	0.877	0.932	0.881	1.08	0.971	1	0.923	0.886	0.72	1.19	0.955	0.938	1.24	1.23	0.619	0.529	0.335	0.281
NCI-H2023	1.02	0.903	0.987	1.1	0.989	1.06	0.873	0.848	0.547	1.03	1.01	0.965	0.984	0.973	0.389	0.435	0.321	0.0704
NCI-H23	0.912	0.873	0.932	1.04	0.9	0.856	0.858	0.912	0.616	1.09	0.742	0.936	0.89	1.01	0.632	0.794	0.779	0.52
NCI-H1944	1.03	0.901	0.944	0.955	0.835	0.909	0.898	0.921	0.87	1.13	0.982	0.992	1.06	0.991	0.234	0.207	0.197	0.182
NCI-H1793	1.1	0.967	0.859	1.02	0.843	0.854	0.9	0.905	0.832	0.48	0.364	–	0.545	0.557	0.354	0.457	0.434	0.387
NCI-H520	1.09	0.926	1.02	0.985	1.08	1.06	0.925	0.915	0.695	1.17	0.99	1.07	1.07	1.13	0.66	0.669	0.422	0.257
A549	1.1	0.986	0.926	1	0.884	0.978	0.903	0.931	0.792	1.18	1.16	1.27	1.17	0.934	0.131	0.153	0.158	0.0741
NCI-H460	1.07	0.992	0.977	0.987	0.945	1	0.89	0.982	0.601	1.2	1.09	1.1	1.11	1.04	0.636	0.31	0.0379	0.0177
EKVX	0.973	0.918	0.905	1.01	0.864	0.948	0.911	0.939	1.03	0.985	0.868	0.867	0.98	1.02	0.246	0.242	0.259	0.23
EPLC-272H	1.03	0.901	0.949	0.879	0.743	0.889	0.84	0.844	0.761	1.22	1.11	1.01	1.24	1.23	0.272	0.295	0.307	0.198
NCI-H1395	0.9	0.939	0.843	0.976	0.899	0.934	0.998	0.816	0.665	1.4	1.26	1.23	1.27	0.924	0.463	0.518	0.443	0.407
NCI-H2126	1.05	0.996	0.908	1.04	0.964	1.01	1	0.94	0.875	0.882	0.792	0.845	0.935	0.832	0.552	0.494	0.491	0.33
LXF-289	1.09	0.958	1.01	1.04	0.955	1	0.938	1.01	1.02	1	0.928	0.894	0.998	0.919	0.574	0.524	0.489	0.53
NCI-H2009	1.02	0.987	1.03	1.01	0.922	1.06	0.969	1.02	0.78	1.19	1.1	1.08	1.14	1.18	0.521	0.451	0.472	0.276
NCI-H2405	0.972	0.919	0.984	1.02	0.877	0.987	0.973	1.01	0.812	0.86	0.746	0.959	0.993	0.788	0.375	0.39	0.35	0.32
NCI-H1755	1.03	0.962	0.949	1.01	1.03	1.01	0.994	1.02	0.963	1.06	0.963	0.977	0.993	0.726	0.638	0.633	0.608	0.546
HCC-78	1.03	0.957	0.894	1.03	0.95	0.999	0.93	1.06	1.05	0.776	0.667	0.879	0.826	0.757	0.712	0.604	0.596	0.662
LOU-NH91	0.964	0.978	0.99	0.989	0.948	0.93	0.963	0.956	0.933	0.72	0.672	0.704	0.723	0.687	0.674	0.743	0.677	0.631
